Source: article PMC6261661 (ACS chemical neuroscience, 2018)
Square brackets hold non-standard residues; d marks the D form. Peptide text beside a SMILES is read from it. * marks the point of attachment. dBip = N[C@H](Cc1ccc(-c2ccccc2)cc1)C(=O)O; dPhe(4-I) = N[C@H](Cc1ccc(I)cc1)C(=O)O; d1Nal = N[C@H](Cc1cccc2ccccc12)C(=O)O; d2Nal = N[C@H](Cc1ccc2ccccc2c1)C(=O)O; Bta = N[C@@H](Cc1csc2ccccc12)C(=O)O; Tic = O=C(O)[C@@H]1Cc2ccccc2CN1; Octanoyl = CCCCCCCC(=O)*

Tests used:
Assay type in all cases: cell-based
[1] = target: mMC1R (Mus musculus, UniProt Q01727); experiment: CRE/β-galactosidase reporter gene bioassay, agonist activity at mMC1R; conditions: for mMC1R Fold Diff: fold difference in EC50 vs peptide 1, negative prefix = more potent than 1; for EC50: mMC1R EC50, agonist, HEK-293 cells stably expressing receptor, ±SEM
mMC1R, sequence (Q01727 whole entry): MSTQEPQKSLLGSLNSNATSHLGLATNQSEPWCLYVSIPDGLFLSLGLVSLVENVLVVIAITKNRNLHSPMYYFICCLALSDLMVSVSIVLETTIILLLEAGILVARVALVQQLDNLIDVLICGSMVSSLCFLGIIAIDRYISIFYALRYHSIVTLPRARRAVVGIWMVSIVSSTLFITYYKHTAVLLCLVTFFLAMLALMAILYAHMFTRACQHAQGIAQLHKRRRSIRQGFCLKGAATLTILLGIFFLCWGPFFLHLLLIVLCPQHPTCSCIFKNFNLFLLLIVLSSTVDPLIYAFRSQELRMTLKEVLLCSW

[2] = target: mMC3R (Mus musculus, UniProt P33033); experiment: cell-based; conditions: for mMC3R Fold Diff: fold difference in EC50 vs peptide 1, negative prefix = more potent than 1
mMC3R, sequence (P33033 whole entry): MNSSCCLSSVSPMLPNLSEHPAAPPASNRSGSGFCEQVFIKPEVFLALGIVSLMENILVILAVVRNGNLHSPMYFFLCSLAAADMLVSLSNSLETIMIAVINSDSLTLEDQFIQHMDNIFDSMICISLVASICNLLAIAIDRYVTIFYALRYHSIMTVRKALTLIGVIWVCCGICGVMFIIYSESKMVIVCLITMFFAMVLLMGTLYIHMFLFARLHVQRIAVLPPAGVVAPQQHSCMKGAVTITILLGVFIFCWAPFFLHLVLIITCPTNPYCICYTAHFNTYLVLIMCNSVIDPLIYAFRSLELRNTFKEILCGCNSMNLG

[3] = target: mMC4R (Mus musculus, UniProt P56450); experiment: CRE/β-galactosidase reporter gene bioassay, agonist activity at mMC4R; conditions: for mMC4R Fold Diff.: fold difference in EC50 vs peptide 1, negative prefix = more potent than 1
mMC4R, sequence (P56450 whole entry): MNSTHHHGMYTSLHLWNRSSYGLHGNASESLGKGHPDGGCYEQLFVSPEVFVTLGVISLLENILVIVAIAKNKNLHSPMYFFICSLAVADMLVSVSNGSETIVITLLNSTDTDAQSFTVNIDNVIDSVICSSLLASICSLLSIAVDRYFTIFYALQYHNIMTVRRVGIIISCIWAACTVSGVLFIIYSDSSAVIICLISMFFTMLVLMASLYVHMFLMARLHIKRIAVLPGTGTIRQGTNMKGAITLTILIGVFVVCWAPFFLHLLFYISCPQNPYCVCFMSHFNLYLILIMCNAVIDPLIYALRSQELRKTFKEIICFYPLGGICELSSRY

[4] = target: mMC5R (Mus musculus, UniProt P41149); experiment: CRE/β-galactosidase reporter gene bioassay, agonist activity at mMC5R; conditions: for mMC5R pharmacology in words: comparisons are to reference peptide 1; for mMC5R Fold Diff.: fold difference in EC50 vs peptide 1, negative prefix = more potent than 1; for mMC5R fold less potent than peptide 1: less potent than 1
mMC5R, sequence (P41149 whole entry): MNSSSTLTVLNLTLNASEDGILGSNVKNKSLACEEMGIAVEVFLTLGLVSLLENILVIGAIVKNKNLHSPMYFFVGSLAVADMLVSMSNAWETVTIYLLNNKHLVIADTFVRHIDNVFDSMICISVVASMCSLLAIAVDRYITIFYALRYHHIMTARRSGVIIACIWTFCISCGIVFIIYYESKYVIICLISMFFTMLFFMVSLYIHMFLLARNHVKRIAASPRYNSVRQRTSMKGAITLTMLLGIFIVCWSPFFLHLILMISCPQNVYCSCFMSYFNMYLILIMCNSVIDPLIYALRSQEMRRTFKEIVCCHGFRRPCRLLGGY

Structure (SMILES)	mMC1R Fold Diff [1]	EC50 [1]	EC50 [2]	EC50 [3]	mMC4R Fold Diff. [3]	EC50 [4]	mMC5R pharmacology in words [4]	mMC5R Fold Diff. [4]	mMC3R relative percentage of stimulation at 100 μM ([2]; ligand at 100 μM, compared to maximal response generated by α-MSH)	mMC1R fold difference in EC50, more potent than reference peptide 1 ([1]; more potent agonist than 1)	mMC3R Fold Diff [2]	mMC3R fold difference, more potent agonist than Ac-His-DPhe-Arg-Trp-NH2 ([2]; more potent than 1)	mMC1R fold decrease in potency compared to compound 1 ([1]; less potent than 1)	mMC5R fold less potent than peptide 1 [4]
CCCCCCCC(=O)N[C@@H](Cc1c[nH]cn1)C(=O)N[C@H](Cc1ccccc1)C(=O)N[C@@H](CCCNC(=N)N)C(=O)N[C@@H](Cc1ccccc1)C(N)=O [Peptide 5, Octanoyl-His-DPhe-Arg-Phe-NH2] (Octanoyl-H[dF]RF-NH2)	−7	19.4 ± 2.1 nM	290 ± 60 nM	110 ± 10 nM	8	26 ± 3 nM	decreased potencies	5	–	–	–	–	–	–
CC(=O)N[C@@H](Cc1ccccc1)C(=O)N[C@H](Cc1cccc2ccccc12)C(=O)N[C@@H](CCCNC(=N)N)C(=O)N[C@@H](Cc1c[nH]c2ccccc12)C(N)=O [Peptide 21, Ac-Phe-DNal(1’)-Arg-Trp-NH2] (Ac-F[d1Nal]RW-NH2)	28	3900 ± 1900 nM	> 100000 nM	2800 ± 1000 nM	205	3800 ± 2100 nM	–	720	–	–	–	–	–	–
CC(=O)N[C@@H](Cc1c[nH]cn1)C(=O)N[C@H](Cc1ccc(I)cc1)C(=O)N[C@@H](CCCNC(=N)N)C(=O)N[C@@H](Cc1ccccc1)C(N)=O [Peptide 32, Ac-His-(pI)DPhe-Arg-Phe-NH2] (Ac-H[dPhe(4-I)]RF-NH2)	–	91 ± 13 nM	–	80 ± 7 nM	6	18.4 ± 5.7 nM	equipotent agonists	–	60% at 100 μM	–	–	–	–	–
CCCCCCCC(=O)N[C@@H](Cc1c[nH]cn1)C(=O)N[C@H](Cc1ccccc1)C(=O)N[C@@H](CCCNC(=N)N)C(=O)N[C@@H](Cc1csc2ccccc12)C(N)=O [Peptide 3, Octanoyl-His-DPhe-Arg-3Bal-NH2] (Octanoyl-H[dF]R[Bta]-NH2)	−10	14.6 ± 3.9 nM	52 ± 7 nM	13 ± 3 nM	–	2.4 ± 0.5 nM	equipotent	–	–	10 fold	−11	11 fold	–	–
CC(=O)N[C@@H](Cc1c[nH]c2ccccc12)C(=O)N[C@H](Cc1ccccc1)C(=O)N[C@@H](CCCNC(=N)N)C(=O)N[C@H](Cc1ccc2ccccc2c1)C(N)=O [Peptide 26, Ac-Trp-DPhe-Arg-DNal(2’)-NH2] (Ac-W[dF]R[d2Nal]-NH2)	167	23000 ± 7000 nM	> 100000 nM	4300 ± 800 nM	310	5800 ± 600 nM	–	1094	–	–	–	–	> 160 fold	approximately 1000 fold
CC(=O)N[C@@H](Cc1cnc[nH]1)C(=O)N[C@H](Cc1ccccc1)C(=O)N[C@@H](CCCN=C(N)N)C(=O)N[C@@H](Cc1c[nH]c2ccccc12)C(N)=O [Peptide 1, Ac-His-DPhe-Arg-Trp-NH2, reference compound]	–	–	–	–	–	5.3 ± 1.6 nM	–	–	–	–	–	–	–	–
CCCCCCCC(=O)N[C@@H](Cc1c[nH]cn1)C(=O)N[C@H](Cc1ccccc1)C(=O)N[C@@H](CCCNC(=N)N)C(=O)N1Cc2ccccc2C[C@H]1C(N)=O [Peptide 4, Octanoyl-His-DPhe-Arg-Tic-NH2] (Octanoyl-H[dF]R[Tic]-NH2)	−20	7.4 ± 2.1 nM	6900 ± 400 nM	1700 ± 300 nM	120	270 ± 20 nM	decreased potencies	50	–	–	12	–	–	50 fold
CC(=O)N[C@@H](Cc1ccccc1)C(=O)N[C@H](Cc1ccc(-c2ccccc2)cc1)C(=O)N[C@@H](CCCNC(=N)N)C(=O)N[C@@H](Cc1c[nH]c2ccccc12)C(N)=O [Peptide 20, Ac-Phe-DBip-Arg-Trp-NH2] (Ac-F[dBip]RW-NH2)	71	10000 ± 4900 nM	> 100000 nM	5400 ± 1600 nM	395	500 ± 70 nM	–	94	–	–	–	–	–	–
